# The NIST ThermoML archive (doi:10.1016/j.fluid.2011.12.029)
# ± gives the expanded uncertainty stated by the source.
# Details: Liquid, Vibrating tube method
smiles,measurement,setting,value
CCCC[n+]1cccc(C)c1.N#C[N-]C#N [1-butyl-3-methylpyridinium dicyanamide],mass density,"283.15 K, 100 kPa",1058.8 ± 0.96 kg/m3
same,mass density,"283.15 K, 5000 kPa",1060.66 ± 0.97 kg/m3
same,mass density,"283.15 K, 10000 kPa",1062.55 ± 0.99 kg/m3
same,mass density,"283.15 K, 15000 kPa",1064.33 ± 1 kg/m3
same,mass density,"283.15 K, 20000 kPa",1066.19 ± 1 kg/m3
same,mass density,"283.15 K, 25000 kPa",1067.75 ± 1 kg/m3
same,mass density,"288.15 K, 100 kPa",1055.64 ± 0.95 kg/m3
same,mass density,"288.15 K, 5000 kPa",1057.59 ± 0.97 kg/m3
same,mass density,"288.15 K, 10000 kPa",1059.47 ± 0.98 kg/m3
same,mass density,"288.15 K, 15000 kPa",1061.24 ± 1 kg/m3
same,mass density,"288.15 K, 20000 kPa",1063.09 ± 1 kg/m3
same,mass density,"288.15 K, 25000 kPa",1064.88 ± 1 kg/m3
same,mass density,"288.15 K, 30000 kPa",1066.59 ± 1.1 kg/m3
same,mass density,"288.15 K, 35000 kPa",1068.35 ± 1.1 kg/m3
same,mass density,"288.15 K, 40000 kPa",1070.07 ± 1.1 kg/m3
same,mass density,"288.15 K, 45000 kPa",1071.67 ± 1.1 kg/m3
same,mass density,"288.15 K, 50000 kPa",1073.24 ± 1.1 kg/m3
same,mass density,"293.15 K, 100 kPa",1052.56 ± 0.95 kg/m3
same,mass density,"293.15 K, 5000 kPa",1054.46 ± 0.96 kg/m3
same,mass density,"293.15 K, 10000 kPa",1056.37 ± 0.98 kg/m3
same,mass density,"293.15 K, 15000 kPa",1058.23 ± 0.99 kg/m3
same,mass density,"293.15 K, 20000 kPa",1060.01 ± 1 kg/m3
same,mass density,"293.15 K, 25000 kPa",1061.8 ± 1 kg/m3
same,mass density,"293.15 K, 30000 kPa",1063.56 ± 1 kg/m3
same,mass density,"293.15 K, 35000 kPa",1065.35 ± 1.1 kg/m3
same,mass density,"293.15 K, 40000 kPa",1066.96 ± 1.1 kg/m3
same,mass density,"293.15 K, 45000 kPa",1068.69 ± 1.1 kg/m3
same,mass density,"293.15 K, 50000 kPa",1070.15 ± 1.1 kg/m3
same,mass density,"293.15 K, 55000 kPa",1072.13 ± 1.1 kg/m3
same,mass density,"293.15 K, 60000 kPa",1073.41 ± 1.2 kg/m3
same,mass density,"293.15 K, 65000 kPa",1074.96 ± 1.2 kg/m3
same,mass density,"298.15 K, 100 kPa",1049.45 ± 0.94 kg/m3
same,mass density,"298.15 K, 5000 kPa",1051.35 ± 0.95 kg/m3
same,mass density,"298.15 K, 10000 kPa",1053.24 ± 0.97 kg/m3
same,mass density,"298.15 K, 15000 kPa",1055.19 ± 0.98 kg/m3
same,mass density,"298.15 K, 20000 kPa",1057.08 ± 1 kg/m3
same,mass density,"298.15 K, 25000 kPa",1058.87 ± 1 kg/m3
same,mass density,"298.15 K, 30000 kPa",1060.59 ± 1 kg/m3
same,mass density,"298.15 K, 35000 kPa",1062.37 ± 1.1 kg/m3
same,mass density,"298.15 K, 40000 kPa",1064.1 ± 1.1 kg/m3
same,mass density,"298.15 K, 45000 kPa",1065.73 ± 1.1 kg/m3
same,mass density,"298.15 K, 50000 kPa",1067.37 ± 1.1 kg/m3
same,mass density,"298.15 K, 55000 kPa",1069.04 ± 1.1 kg/m3
same,mass density,"298.15 K, 60000 kPa",1070.61 ± 1.1 kg/m3
same,mass density,"298.15 K, 65000 kPa",1072.1 ± 1.2 kg/m3
same,mass density,"303.15 K, 100 kPa",1046.36 ± 0.93 kg/m3
same,mass density,"303.15 K, 5000 kPa",1048.3 ± 0.95 kg/m3
same,mass density,"303.15 K, 10000 kPa",1050.18 ± 0.96 kg/m3
same,mass density,"303.15 K, 15000 kPa",1052.05 ± 0.97 kg/m3
same,mass density,"303.15 K, 20000 kPa",1053.94 ± 0.99 kg/m3
same,mass density,"303.15 K, 25000 kPa",1055.82 ± 1 kg/m3
same,mass density,"303.15 K, 30000 kPa",1057.57 ± 1 kg/m3
same,mass density,"303.15 K, 35000 kPa",1059.35 ± 1 kg/m3
same,mass density,"303.15 K, 40000 kPa",1061.07 ± 1.1 kg/m3
same,mass density,"303.15 K, 45000 kPa",1062.75 ± 1.1 kg/m3
same,mass density,"303.15 K, 50000 kPa",1064.4 ± 1.1 kg/m3
same,mass density,"303.15 K, 55000 kPa",1066.19 ± 1.1 kg/m3
same,mass density,"303.15 K, 60000 kPa",1067.59 ± 1.1 kg/m3
same,mass density,"303.15 K, 65000 kPa",1069.21 ± 1.2 kg/m3
same,mass density,"308.15 K, 100 kPa",1043.21 ± 0.93 kg/m3
same,mass density,"308.15 K, 5000 kPa",1045.23 ± 0.94 kg/m3
same,mass density,"308.15 K, 10000 kPa",1047.28 ± 0.95 kg/m3
same,mass density,"308.15 K, 15000 kPa",1049.14 ± 0.97 kg/m3
same,mass density,"308.15 K, 20000 kPa",1051.02 ± 0.98 kg/m3
same,mass density,"308.15 K, 25000 kPa",1052.92 ± 1 kg/m3
same,mass density,"308.15 K, 30000 kPa",1054.8 ± 1 kg/m3
same,mass density,"308.15 K, 35000 kPa",1056.51 ± 1 kg/m3
same,mass density,"308.15 K, 40000 kPa",1058.23 ± 1.1 kg/m3
same,mass density,"308.15 K, 45000 kPa",1059.9 ± 1.1 kg/m3
same,mass density,"308.15 K, 50000 kPa",1061.71 ± 1.1 kg/m3
same,mass density,"308.15 K, 55000 kPa",1063.27 ± 1.1 kg/m3
same,mass density,"308.15 K, 60000 kPa",1064.76 ± 1.1 kg/m3
same,mass density,"308.15 K, 65000 kPa",1066.44 ± 1.1 kg/m3
same,mass density,"313.15 K, 100 kPa",1040.26 ± 0.92 kg/m3
same,mass density,"313.15 K, 5000 kPa",1042.22 ± 0.93 kg/m3
same,mass density,"313.15 K, 10000 kPa",1044.29 ± 0.95 kg/m3
same,mass density,"313.15 K, 15000 kPa",1046.25 ± 0.96 kg/m3
same,mass density,"313.15 K, 20000 kPa",1048.15 ± 0.97 kg/m3
same,mass density,"313.15 K, 25000 kPa",1050.05 ± 0.99 kg/m3
same,mass density,"313.15 K, 30000 kPa",1051.8 ± 1 kg/m3
same,mass density,"313.15 K, 35000 kPa",1053.63 ± 1 kg/m3
same,mass density,"313.15 K, 40000 kPa",1055.42 ± 1 kg/m3
same,mass density,"313.15 K, 45000 kPa",1057.11 ± 1.1 kg/m3
same,mass density,"313.15 K, 50000 kPa",1058.82 ± 1.1 kg/m3
same,mass density,"313.15 K, 55000 kPa",1060.43 ± 1.1 kg/m3
same,mass density,"313.15 K, 60000 kPa",1062.05 ± 1.1 kg/m3
same,mass density,"313.15 K, 65000 kPa",1063.59 ± 1.1 kg/m3
same,mass density,"318.15 K, 100 kPa",1037.22 ± 0.91 kg/m3
same,mass density,"318.15 K, 5000 kPa",1039.29 ± 0.93 kg/m3
same,mass density,"318.15 K, 10000 kPa",1041.17 ± 0.94 kg/m3
same,mass density,"318.15 K, 15000 kPa",1043.3 ± 0.95 kg/m3
same,mass density,"318.15 K, 20000 kPa",1045.08 ± 0.96 kg/m3
same,mass density,"318.15 K, 25000 kPa",1046.98 ± 0.98 kg/m3
same,mass density,"318.15 K, 30000 kPa",1048.91 ± 0.99 kg/m3
same,mass density,"318.15 K, 35000 kPa",1050.75 ± 1 kg/m3
same,mass density,"318.15 K, 40000 kPa",1052.38 ± 1 kg/m3
same,mass density,"318.15 K, 45000 kPa",1054.09 ± 1 kg/m3
same,mass density,"318.15 K, 50000 kPa",1055.97 ± 1.1 kg/m3
same,mass density,"318.15 K, 55000 kPa",1057.54 ± 1.1 kg/m3
same,mass density,"318.15 K, 60000 kPa",1059.3 ± 1.1 kg/m3
same,mass density,"318.15 K, 65000 kPa",1060.96 ± 1.1 kg/m3
same,mass density,"323.15 K, 100 kPa",1034.21 ± 0.91 kg/m3
same,mass density,"323.15 K, 5000 kPa",1036.41 ± 0.92 kg/m3
same,mass density,"323.15 K, 10000 kPa",1038.36 ± 0.93 kg/m3
same,mass density,"323.15 K, 15000 kPa",1040.45 ± 0.94 kg/m3
same,mass density,"323.15 K, 20000 kPa",1042.21 ± 0.96 kg/m3
same,mass density,"323.15 K, 25000 kPa",1044.3 ± 0.97 kg/m3
same,mass density,"323.15 K, 30000 kPa",1046.05 ± 0.99 kg/m3
same,mass density,"323.15 K, 35000 kPa",1047.94 ± 1 kg/m3
same,mass density,"323.15 K, 40000 kPa",1049.73 ± 1 kg/m3
same,mass density,"323.15 K, 45000 kPa",1051.45 ± 1 kg/m3
same,mass density,"323.15 K, 50000 kPa",1053.22 ± 1.1 kg/m3
same,mass density,"323.15 K, 55000 kPa",1054.85 ± 1.1 kg/m3
same,mass density,"323.15 K, 60000 kPa",1056.49 ± 1.1 kg/m3
same,mass density,"323.15 K, 65000 kPa",1058.03 ± 1.1 kg/m3
same,mass density,"328.15 K, 100 kPa",1031.21 ± 0.9 kg/m3
same,mass density,"328.15 K, 5000 kPa",1033.17 ± 0.91 kg/m3
same,mass density,"328.15 K, 10000 kPa",1035.31 ± 0.92 kg/m3
same,mass density,"328.15 K, 15000 kPa",1037.3 ± 0.94 kg/m3
same,mass density,"328.15 K, 20000 kPa",1039.35 ± 0.95 kg/m3
same,mass density,"328.15 K, 25000 kPa",1041.31 ± 0.96 kg/m3
same,mass density,"328.15 K, 30000 kPa",1042.96 ± 0.98 kg/m3
same,mass density,"328.15 K, 35000 kPa",1044.93 ± 0.99 kg/m3
same,mass density,"328.15 K, 40000 kPa",1046.72 ± 1 kg/m3
same,mass density,"328.15 K, 45000 kPa",1048.66 ± 1 kg/m3
same,mass density,"328.15 K, 50000 kPa",1050.54 ± 1 kg/m3
same,mass density,"328.15 K, 55000 kPa",1052.18 ± 1.1 kg/m3
same,mass density,"328.15 K, 60000 kPa",1053.85 ± 1.1 kg/m3
same,mass density,"328.15 K, 65000 kPa",1055.47 ± 1.1 kg/m3
same,mass density,"333.15 K, 100 kPa",1027.63 ± 0.89 kg/m3
same,mass density,"333.15 K, 5000 kPa",1030.21 ± 0.91 kg/m3
same,mass density,"333.15 K, 10000 kPa",1032.34 ± 0.92 kg/m3
same,mass density,"333.15 K, 15000 kPa",1034.45 ± 0.93 kg/m3
same,mass density,"333.15 K, 20000 kPa",1036.45 ± 0.94 kg/m3
same,mass density,"333.15 K, 25000 kPa",1038.36 ± 0.95 kg/m3
same,mass density,"333.15 K, 30000 kPa",1040.39 ± 0.97 kg/m3
same,mass density,"333.15 K, 35000 kPa",1042.19 ± 0.98 kg/m3
same,mass density,"333.15 K, 40000 kPa",1044.05 ± 1 kg/m3
same,mass density,"333.15 K, 45000 kPa",1045.58 ± 1 kg/m3
same,mass density,"333.15 K, 50000 kPa",1047.67 ± 1 kg/m3
same,mass density,"333.15 K, 55000 kPa",1049.26 ± 1.1 kg/m3
same,mass density,"333.15 K, 60000 kPa",1051.06 ± 1.1 kg/m3
same,mass density,"333.15 K, 65000 kPa",1052.61 ± 1.1 kg/m3
